Patent EP0325571B1, “New amines, their use and preparation” (priority 1988, dated 1989)
pIC50: −log10 of the molar value. Read-outs that look alike come from different tables or passages of the source.

Experiments:
portal vein [1] = assay: Ca-antagonistic effect on isolated portal vein (spontaneous myogenic activity); design: species or system rat
Description: (§1) b) Antagonistic effect to noradrenaline and calcium on the portal vein
(§2) Preparation of isolated portal vein from rat
(§3) Animals : Albino, male rats, weighing about 200 g.
(§4) The rat is killed by a blow on the neck and decapitated. The abdomen is opened, the vein is dissected free from fat, cut open longitudinally and mounted in an organ bath. Changes in isometric tension is registered by a force displacement transducer, connected to an amplifier and a writing oscillograph.
Ca - antagonistic effect on portal vein
10 mM K^+-solution is added to the Krebs buffer to stabilize the spontaneous myogenic activity of the vein. The amplitude of the muscle contractions is measued. The test substance is added to the bath in cumulative doses until total inhibition is obtained.

portal vein [2] = assay: Noradrenaline antagonism on isolated portal vein; design: species or system rat; details: 10 min; for pIC50: rat portal vein, noradrenaline 3 x 10-^7 M, 10 minutes incubation, read-out: Anti-N.A. effect IC50; for IC50: Rattus norvegicus, read-out: Anti-N.A. effect IC50 (M)
Description: as §1, §2, §3, §4
Noradrenaline - antagonism on portal vein
Doses: Noradrenaline 3 x 10-^7 M
The chosen doses give about 70% of maximal response. The agonist is added to the bath at 10-minutes intervals. When reproducible contractions are obtained a fixed concentration of the test substance is added to the bath. After an incubation period of 10 minutes noradrenaline is added. The next concentration of the test substance is added when the original response of the agonist is obtained.
The antagonistic effect of the substance is calculated as per cent inhibition of the mean response by three preceding doses of the agonist.

isolated urinary bladder = assay: Anticholinergic activity on isolated urinary bladder (inhibition of carbachol-induced contraction of bladder strips); design: species or system guinea-pigs
Description: a) Anticholinergic activity on isolated urinary bladder
Male guinea-pigs, weighing 250-350 g, were killed by a blow on the head and exsanguinated. The urinary bladders were quickly removed and placed in Na^+-Krebs, in which they were kept throughout the dissection procedure. The bladders were dissected free from adherent fat and connective tissue before they were cut open by an incision on each side from the base towards apex. The mucosa was carefully removed with a pair of scissors. Four strips, approximately 3-5 mm long were prepared by cutting in a parallel direction to the longitudinal muscle fibres, on each half of the bladder.
The bladder strips were immediately mounted vertically in 5 ml organ baths containing Na^+-Krebs solution aerated with carbogene gas to maintain the pH at about 7.4. The temperature, 37°C, was thermostatically controlled by a Lauda MS3 thermostatic circulator. The preparations were suspended between two hooks, one of which was connected to a Grass Instruments FT03 force transducer. The isomeric tension of the preparations was recorded by a Grass polygraph model 79D. The resting tension was applied to approximately 5 mN. The strips were allowed to stabilize for at least 45 minutes. During this period the resting tension was adjusted to 5 mN and the preparations were repeatedly washed.
In the preliminary experiments concentration - effect curves for carbachol (carbamylcholin chloride) were studied, in order to determine a suitable agonist concentration for inhibition studies with antagonist. The carbachol concentration chosen, 3 x 10^-6M, produced a submaximal contractant response (70%). In the inhibition studies, the strips were contracted with carbachol (3 x 10^-6M) every 15 minutes. The strips were washed three times after every agonist addition. This procedure was repeated until a reproducible contractant response was observed. A variation of about 10% for three subsequent contractions was accepted as reproducible.
Initially each antagonist was tested in a concentration of 10-t1M, on. two bladder-strips from different guinea-pigs. When a reproducible response with 3 × 10^-6M carbachol was obtained, the strips were incubated with the antagonist for 15 minutes before the next carbachol was added. If the antagonist produced more than 50% inhibition of the response to carbachol, a complete concentration-inhibition curve was also made. In the complete inhibition curves, the strips were then incubated for 60 minutes with a fixed concentration of the antagonist before the next addition of carbachol. The effect of the antagonists was calculated as per cent inhibition of the mean of the initial agonist-induced contractions. To generate concentration-inhibition curves the antagonists were studied in 6-8 concentrations and for each concentration a fresh preparation was used, i.e. the strips were only exposed to the antagonist once before they were discarded.

conscious rat = assay: Effect on heart rate in conscious rat (ECG); type: in vivo; details: i.v. injection
Description: e) Effect on heart rate in conscious rat
The animal is slightly anaestetized by ether and an infusion cannula is inserted into a tail vein. While still asleep the rat is placed in a simple device, made of a coarse, somewhat elastic net fixing the rat in a constant position. Electrodes are attached to the extremities and connected to an ECG-pulse pre-amplifier and a Grass polygraph. By recording the ECG, the heart rate can then be determined.
Before any substance is given the animal has regained consciousness and the heart rate has been constant for at least 15 minutes.
The substance is injected, i.v. in the infusion cannula and flushed with physiological saline.
ECG is recorded 0.25, 0.5, 1, 2, 3 and 5 minutes after completed injection and then every 5 minutes until the original heart rate is obtained.

mice = assay: Acute toxicity in mice, i.v. bolus; type: in vivo; details: lowest dose where 4 mice of 4 tested died within 5 minutes after i.v. bolus
Procedure: (§5) d) Acute toxicity in mice
(§6) The antagonists to be tested were dissolved in 0.9% NaCI. If they were not soluble in 0.9% NaCI they were dissolved in double distilled water. The solutions were prepared on the day of the experiment.
(§7) White male mice, 25 g, were placed in a mouse holder. The tested compounds were given as i.v. bolus doses in one of the four tail-veins, with a volume of 0.01 ml/g mouse. Each substance concentration was given to a group of four mice. 4-5 different concentrations of the antagonists were made and tested.
(§8) LDso-interval : The LD50-interval was between the highest dose where 4 mice survived and the lowest dose where 4 mice died within 5 minutes after an i.v. bolus dose.

[3] = Acute toxicity in mice, i.v. bolus; type: in vivo; details: mouse, in vivo, iv; LD50-interval: between highest dose where 4 mice survived and lowest dose where 4 mice died within 5 minutes after i.v. bolus
Procedure: as §5, §6, §7, §8

[4] = rat portal vein; 10 mM K^+-solution added; cumulative doses; read-out: Anti-Ca effect IC50
[5] = Cavia porcellus, 1 h, guinea-pig bladder strips contracted with carbachol 3 x 10^-6M; 60 minutes incubation with antagonist; read-out: Antichol. effect IC50
[6] = read-out: Antichol. effect IC50; guinea-pig bladder strips contracted with carbachol 3 x 10^-6M; 60 minutes incubation with antagonist
[7] = Rattus norvegicus, read-out: Anti-Ca effect IC50 (M), rat portal vein; 10 mM K^+-solution added; cumulative doses
[8] = Cavia porcellus, 1 h, read-out: Antichol. effect IC50 (M), guinea-pig bladder strips contracted with carbachol 3 x 10^-6M; 60 minutes incubation with antagonist

SMILES	pIC50 (portal vein [1]; [4])	pIC50 (portal vein [2])	pIC50 (isolated urinary bladder; [5])	Lethal dose (mice)	LD50 at 5 min [3]	further results
CC(C)N(CCC(c1ccccc1)c1ccccc1O)C(C)C (racemic) [Compound 1, N,N-Diisopropyl-3-(2-hydroxyphenyl)-3-phenylpropylamine]	4.82	5.00	7.74	20 mg/kg	10 to 20 mg/kg	Effect on heart rate threshold dose (conscious rat): 1 to 3 mg/kg
Cc1ccc(O)c(C(CCN(C(C)C)C(C)C)c2ccccc2)c1 (single isomer, unassigned) [Compound 4b, (-)-N,N-Diisopropyl-3-(2-hydroxy-5-methylphenyl)-3-phenylpropylamine hydrogen D(-)-tartrate]						pIC50 (portal vein [1]; read-out: Anti-Ca effect IC50; rat portal vein; 10 mM K^+-solution added; cumulative doses): 5.22; pIC50 (isolated urinary bladder; [6]): 5.89
CC(C)N(CCC(c1ccccc1)c1ccccc1O)C(C)C (single isomer, unassigned; (+)) [Compound 1a, (+)-N,N-Diisopropyl-3-(2-hydroxyphenyl)-3-phenylpropylamine]			7.74			
Cc1ccc(O)c(C(CCN(C(C)C)C(C)C)c2ccccc2)c1.O=C(O)C(O)C(O)C(=O)O (single isomer, unassigned; (+)) [Compound 4a, (+)-N,N-Diisopropyl-3-(2-hydroxy-5-methylphenyl)-3-phenylpropylamine hydrogen tartrate]					10 to 20 mg/kg	pIC50 (portal vein [1]; read-out: Anti-Ca effect IC50; rat portal vein; 10 mM K^+-solution added; cumulative doses; tartrate): 5.19; pIC50 (isolated urinary bladder; read-out: Antichol. effect IC50; guinea-pig bladder strips contracted with carbachol 3 x 10^-6M; 60 minutes incubation with antagonist; tartrate): 7.89
CC(C)N(CCC(c1ccccc1)c1ccccc1O)C(C)C (single isomer, unassigned; (-)) [Compound 1b, (-)-N,N-diisopropyl-3-(2-hydroxyphenyl)-3-phenylpropylamine]						pIC50 (isolated urinary bladder; guinea-pig bladder strips contracted with carbachol 3 x 10^-6M; 60 minutes incubation with antagonist; read-out: Antichol. effect IC50): 7.85
COc1ccccc1C(CCN(C)C(C)(C)C)c1ccccc1 (stereo not drawn) [Compound 2]	5.05	5.46	6.82	20 mg/kg	10 to 20 mg/kg	
COc1ccccc1C(CCN(C(C)C)C(C)C)c1ccccc1 (stereo not drawn) [Compound 3]				10 mg/kg	3 to 10 mg/kg	IC50 (portal vein [1]; [7]): > 0.0001 M; IC50 (portal vein [2]): 3.6e-06 M; IC50 (isolated urinary bladder; [8]): 2.4e-07 M
Cc1ccc(O)c(C(CCN(C(C)C)C(C)C)c2ccccc2)c1 (stereo not drawn) [Compound 4, N,N-Diisopropyl-3-(2-hydroxy-5-methylphenyl)-3-phenylpropylamine]					30 to 40 mg/kg	IC50 (portal vein [1]; [7]): 6e-06 M; IC50 (portal vein [2]): 5.5e-06 M; pIC50 (isolated urinary bladder; [6]): 7.82
CN(CCC(c1ccccc1O)c1ccccc1O)C(C)(C)C [Compound 5]	4.52	4.42	8.31	45 mg/kg	30 to 45 mg/kg	Effect on heart rate threshold dose (conscious rat): 1 to 3 mg/kg
CC(C)N(CCC(c1ccccc1)c1cc(O)ccc1O)C(C)C (stereo not drawn) [Compound 7]	4.19	4.30	7.72	50 mg/kg	30 to 50 mg/kg	
CN(CCC(c1ccccc1)c1cc(O)ccc1O)C(C)(C)C (stereo not drawn) [Compound 8]	< 4.30	4.30	7.51	>6 mg/kg	> 6 mg/kg	
CN(CCC(c1ccccc1)c1ccccc1O)C(C)(C)C (stereo not drawn) [Compound 9]	4.60	4.30	7.80	20 mg/kg		
COc1ccccc1C(CCN1C(C)(C)CCCC1(C)C)c1ccccc1 (stereo not drawn) [Compound 10]	5.15	5.40	7.21			
CC(C)N(CCC(c1ccccc1O)c1ccccc1O)C(C)C [Compound 13]				10 mg/kg	5 to 10 mg/kg	IC50 (portal vein [1]; [7]): 1.5e-05 M; IC50 (portal vein [2]): 3e-05 M; IC50 (isolated urinary bladder; [8]): 9e-09 M
COc1ccccc1C(CCN(C)C)c1ccccc1 (stereo not drawn) [GB-A-1.169.944, N,N-dimethyl-3-(2-methoxyphenyl)-3-phenylpropylamine, reference compound]	4.68	5.36	5.92	15 mg/kg	10 to 15 mg/kg	
CC(CC(c1ccccc1)c1ccccc1)NC(C)(C)C (stereo not drawn) [Terodiline, terodiline, reference compound]	5.00	5.62	6.28	20 mg/kg	15 to 20 mg/kg	Effect on heart rate threshold dose (conscious rat): 1 to 3 mg/kg
